Results taken from PubChem BioAssay (NCI).
“And” between values parts separate entries of the source, which are not always exact repeats. Identical values can stand only once.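 Values below derive from 48-hour exposures of cells grown in 96-well plates, with endpoints linearly interpolated between the two concentrations bracketing the appropriate inhibition level. At the GI50, growth is halved. Definition used: TGI = concentration required for complete inhibition of growth.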

Experiments:
Test in all cases: NCI anticancer screen, dose series, 48 h
HT29 colon = tested on: HT29 colon
UACC-62 melanoma = tested on: UACC-62 melanoma
KM12 colon = tested on: KM12 colon
NCI-H23 lung = tested on: NCI-H23 lung
OVCAR-4 ovarian = tested on: OVCAR-4 ovarian
OVCAR-8 ovarian = tested on: OVCAR-8 ovarian
786-0 renal = tested on: 786-0 renal
TK-10 renal = tested on: TK-10 renal
CCRF-CEM leukemia = tested on: CCRF-CEM leukemia
SK-MEL-28 melanoma = tested on: SK-MEL-28 melanoma

SMILES	GI50 (HT29 colon)	TGI (HT29 colon)	GI50 (UACC-62 melanoma)	TGI (UACC-62 melanoma)	GI50 (KM12 colon) [nM]	TGI (KM12 colon) [µM]	GI50 (NCI-H23 lung)	TGI (NCI-H23 lung)	GI50 (OVCAR-4 ovarian)	TGI (OVCAR-4 ovarian)	GI50 (OVCAR-8 ovarian)	TGI (OVCAR-8 ovarian)	GI50 (786-0 renal)	TGI (786-0 renal)	GI50 (TK-10 renal)	TGI (TK-10 renal)	GI50 (CCRF-CEM leukemia)	TGI (CCRF-CEM leukemia)	GI50 (SK-MEL-28 melanoma) [µM]	TGI (SK-MEL-28 melanoma)
O=C(NCCN1CCOCC1)c1cc2c(Oc3ccc(NC(=O)C4(C(=O)Nc5ccc(F)cc5)CC4)cc3)ccnc2[nH]1	3000 nM	18.7 µM	4.26 µM	22.7 µM	412	> 40.9	1.59 µM	> 75.1 µM	5.13 µM	> 100 µM	5.19 µM	> 100 µM	6.74 µM	45.6 µM	7.56 µM	41 µM	11 µM	> 100 µM	4.37	19.4 µM
C=C(CN1CCN(c2cc(C(F)(F)F)cc(C(F)(F)F)c2)CC1)c1ccc(C(=O)Nc2ccccc2N)cc1	1910 nM	4.75 µM	4.21 µM	> 100 µM	3470	21.8	14.2 µM	72.1 µM	2.53 µM	9.9 µM	9.55 µM	> 100 µM	6.77 µM	86.5 µM	12.3 µM	> 100 µM	1.49 µM	6.51 µM	3.68	15.9 µM
COc1cccc(/C=C\C(=O)c2ccccc2)c1	3650 nM	17.5 µM	13.3 µM	29 µM	2300	4.91	10.4 µM	44.8 µM	10.8 µM	27 µM	7.83 µM	24.7 µM	15 µM	34.2 µM	13.7 µM	30.4 µM	6.79 µM	> 100 µM	4.31	15 µM
N#Cc1c(N)oc2cc3c(C#N)c(N)oc3cc12		> 100 µM		> 100 µM		> 100		> 100 µM		> 100 µM		> 100 µM		> 100 µM		> 100 µM		> 100 µM		> 100 µM
CCOC(=O)C(Oc1ccc(OC)c2c1C(=O)CCC2)c1ccccc1 (stereo not drawn)		> 100 µM		> 100 µM		> 100		> 100 µM		> 100 µM		> 100 µM		> 100 µM		> 100 µM		> 100 µM		> 100 µM
COc1cc2c(cc1O)CCN[C@@]21CS[C@H]2c3c(OC(C)=O)c(C)c4c(c3C(COC1=O)N1C2C2NC(Cc3cc(C)c(OC)c(O)c32)[C@@H]1O)OCO4 (stereo partly drawn)	4.5 ng/mL	11.1 µM and 5.58 µg/mL	4.5 ng/mL	4.5 ng/mL		11.3	4.5 ng/mL	298 nM and 1.3e-07 µg/mL and 0.0045 µg/mL	4.5 ng/mL	< 10 nM and 0.0045 µg/mL	4.5 ng/mL	< 10 nM and 0.472 µg/mL	4.5 ng/mL	30.8 nM and 0.0045 µg/mL	0.00184 ng/mL and 4.5 ng/mL	13.1 µM and 6.24 µg/mL	4.5 ng/mL	> 100 µM and 0.000154 µg/mL and 0.0045 µg/mL		< 10 nM and 3.1e-07 µg/mL and 0.0045 µg/mL
CC[C@H](C)[C@H](NC(=O)CN(C)C)C(=O)N(C)[C@H](C[C@@H](OC(C)=O)c1nc(C(=O)NC23C4C5C2C2C3C4C52C(=O)OC)cs1)C(C)C (stereo partly drawn)	133 nM	> 33.2 µM	0.19 µM	> 33.2 µM	740	> 33.2	1.42 µM	> 33.2 µM	2.81 µM	> 33.2 µM	0.507 µM	> 33.2 µM	0.79 µM	> 33.2 µM	9.48 µM	> 33.2 µM	0.18 µM	> 33.2 µM	1.38	> 33.2 µM
